Reference: article PMC9555309, “Improvement of native structure-based peptides as efficient inhibitors of protein-protein interactions of SARS-CoV-2 spike protein and human ACE2” (Frontiers in Molecular Biosciences, 2022)
No end group written: not given here.

Key:
[1] = target: RBD domain of the SARS-CoV-2 S protein (Severe acute respiratory syndrome coronavirus 2, UniProt P0DTC2); test: biochemical; type: binding; details: KD Tmeasur. 25°C
[2] = tested on: BEAS 2B cells; test: MTS cell viability assay, BEAS 2B; type: cell-based, human; details: 72 h exposure, concentrations up to 1 mM
Experimental: (§1) BEAS 2B (cat. no.: ATCC® CRL-9609™) and Calu-3 (cat. no.: ATCC HTB-55™) cell lines were purchased from the American Type Culture Collection (ATCC, United States). BEAS 2B cells were maintained in Bronchial Epithelial Cell Growth Medium (BEGM) containing Bronchial Epithelial Basal Medium (BEBM cat. no.: CC-3171) supplemented with growth factors (SingleQuotsTM Supplement Pack cat. no.: CC-4175), both from Lonza (Switzerland). […]
(§2) After 72 h of incubation at 37°C, the combined solution of MTS (Promega, United States, cat. no.: G1112) and an electron coupling reagent, phenazine methosulfate (PMS, Sigma-Aldrich, Merck, Germany, cat. no.: P9625) was added to the cell culture media, to a final concentration of 333 μg/ml MTS and 25 μM PMS. Cells were then incubated for 3 h at 37°C in a humidified, 5% CO2 atmosphere, and the absorbance at 490 nm wavelength was measured using a spectrophotometer (Synergy HT Microplate Reader, BioTek, United States). The absorbance values recorded for cells exposed to peptide were compared to values measured for untreated control cells, regarded as 100% cell viability.
(§3) The amount of formazan product measured spectrophotometrically is directly proportional to the number of viable cells ([Berridge et al., 2005]).

[3] = tested on: Calu-3 cells; test: MTS cell viability assay, Calu-3; type: cell-based, human; details: Calu-3, 72 h exposure, concentrations up to 1 mM
Experimental: as §1, §2, §3

[4] = tested on: SARS-CoV-2 S protein - hACE2 interaction; details: ref Odolczyk et al., 2021; read-out: IC50 inhibition of virus-host protein-protein interaction; cited from earlier work

Compound | Kd [1] | Cell viability (MTS) [2] | Cell viability (MTS) [3] | IC50 [4]
NC(=O)C[C@H](NC(=O)CNC(=O)[C@H](Cc1ccc(O)cc1)NC(=O)[C@@H](N)CC(=O)O)C(=O)N[C@@H](Cc1c[nH]cn1)C(=O)N[C@@H](CCC(=O)O)C(=O)O [J3, DYGNHE] | 0.05 ± 0.01 µM | not affected | not affected | 
NCCCC[C@H](NC(=O)[C@@H](N)CC(=O)O)C(=O)NCC(=O)N[C@@H](CC(N)=O)C(=O)N[C@@H](Cc1c[nH]cn1)C(=O)N[C@@H](CCC(=O)O)C(=O)O [pep1d, DKGNHE] |  |  |  | 3300 µM
LYGNYE [J3.5, LYGNYE] | > 1 µM |  |  | 
MYGNYE [J3.4, MYGNYE] | > 10 µM |  |  | 
